Laboratory results from patent US20200147058A1, “KRAS INHIBITOR FOR USE IN TREATING CANCER” (Friedrich-Alexander-Universitat Erlangen-Numberg, priority 2016, published 2020).

Key:
Mel Im cells [1] = test: real-time cell proliferation (slope of cell index); assay type: cell-based, human; conditions: different concentrations of DR vs DMSO
Excerpt: (§1) FIGS. 4A through 4H depict that small Molecule KRAS Inhibition Reduces Proliferation and Induces Apoptosis in Melanoma. FIGS. 4A and 4B show proliferation (slope of cell index) of Mel Juso (FIG. 4A) and Mel Im (FIG. 4B) cells treated with DMSO and different concentrations of the KRAS small molecule inhibitor Deltarasin (DR). The cell index as dimensionless parameter for cell proliferative ability was used to determine the half maximal inhibitory concentration (IC50, small graphs) of DR. […] FIG. 4D illustrates exemplary images of different melanoma cell lines (Mel Im, Mel Juso and Mel Ei) treated with 5 μM DR or 5 μM DMSO, respectively, for 24 hours. FIGS. 4E and 4F show images of fibroblast cell lines derived from two different donors (F1, F2) and melanocytes (NHEM) treated DR (20 μM, 48 hours) or DMSO (FIG. 4E), and lactate dehydrogenase (LDH) quantification (FIG. 4F) in cell supernatants (optic density, OD) of NHEM after treatment with low dose DMSO, DR (5 μM), and DR (10 μM), respectively.

Mel Juso cells [2] = test: real-time cell proliferation (slope of cell index); assay type: cell-based, human; conditions: different concentrations of DR vs DMSO
Excerpt: as §1

[3] = tested on: melanoma cell lines (Mel Im, Mel Juso and Mel Ei); test: toxicity (images) in melanoma cell lines; assay type: cell-based, human; conditions: 5 μM, 24 hours
Excerpt: as §1

Mel Im cells [4] = test: long-term treatment, emergence of surviving tumor cells and drug resistance; assay type: cell-based, human; conditions: 28 days, IC50 or 2×IC50
Excerpt: as §1
FIGS. 6A through 6H depict that KRASi Prevents Emergence of Resistance and KRAS Expression is Regulated Dynamically in Acquired Resistance to BRAFi. […] Asterisks indicate significant differences (p<0.05) as compared to according control (0 μM PLX). […] Densitometric values (DM) are also shown, representing relative quantifications. […]

Mel Juso cells [5] = test: as above; assay type: cell-based, human; conditions: 28 days, IC50 or 2×IC50
Mel Im cells [6] = test: three-dimensional, anchorage-independent colony-forming assay; assay type: cell-based, human; conditions: Mel Im (BRAFi primary sensitive); DR 5 μM, PLX 10 μM, alone or combined
[7] = tested on: resistant cell clones (SkMel28-R, 451Lu-R); test: real-time cell proliferation of BRAFi-resistant melanoma cells; assay type: cell-based, human; conditions: in combination with 5 or 10 μM PLX
Procedure: FIGS. 6A through 6H depict that KRASi Prevents Emergence of Resistance and KRAS Expression is Regulated Dynamically in Acquired Resistance to BRAFi. […] Asterisks indicate significant differences (p<0.05) as compared to according control (0 μM PLX). FIGS. 6E and 6F are exemplary Western blot images (FIG. 6E) depicting immunostaining of AKT, pAKT, ERK, pERK, and KRAS. Densitometric values (DM) are also shown, representing relative quantifications. Resistant cell lines 451Lu-R and SkMel28-R were treated with 0, 5, or 10 μM PLX for 8 hours, and according summarized quantification of KRAS protein expression (n=3, FIG. 6F).
FIGS. 7A through 7I present KRAS Inhibition Re-sensitizes BRAF Inhibitor Resistant Cells for Inhibition of Proliferation and Induction of Apoptosis. […] show real-time cell proliferation (exemplary proliferation curve depicted in FIG. 6A, summarized slopes of proliferation curves depicted in FIG. 6B) of PLX-resistant cells treated with si-KRAS (KR) or control si-RNA (CTR), respectively, in combination with 5 or 10 μM PLX. FIGS. 7C and 7D show real-time cell proliferation (exemplary proliferation curve depicted in […], summarized slopes of proliferation curves depicted in FIG. 7D) of PLX-resistant cells treated with Deltarasin (DR) or DMSO, respectively, in combination with 5 or 10 μM PLX, according to FIGS. 7A and 7B. […]

[8] = tested on: 451Lu-R and SkMel28-R cells; test: long-term treatment of PLX-resistant cell lines, surviving tumor cells; assay type: cell-based, human; conditions: 8 μM DR, 28 days
PLC cells = test: Western blot pERK- and pAKT protein levels; assay type: cell-based, human; conditions: Deltarasin vs DMSO
Hep3B cells = test: Western blot pERK- and pAKT protein levels; assay type: cell-based, human; conditions: Deltarasin vs DMSO
HCC tumor cells = test: tumor cell toxicity in HCC; assay type: cell-based, human; conditions: higher doses of DR (>8 μM)
[9] = tested on: murine hepatoma cell line Hepa129; test: viable cells counted by microscopy; assay type: cell-based; conditions: 24 hours
Procedure: (§2) FIGS. 12A through 12C depict Murine Hepatoma Cells (Hepta129) Sensitive for Small Molecule KRAS Inhibition in vitro and in vivo. […] is exemplary images (4-fold) depicting murine Hepatoma Cells (Hepa129) treated for 24 hours with Deltarasin (DR) and/or Sorafenib (SF) using different concentration of inhibitors.

[10] = tested on: murine hepatoma cell line Hepa129; test: apoptosis by FACS analysis; assay type: cell-based; conditions: 24 hours
Procedure: as §2

HCC cells = test: anchorage-dependent tumor cell growth; assay type: cell-based, human; conditions: low doses (6 μM)
PLC = conditions: DR doses

c1ccc(Cn2c(-c3ccc(OC[C@H](C4CCNCC4)n4c(-c5ccccc5)nc5ccccc54)cc3)nc3ccccc32)cc1 [Deltarasin, (S)-1-Benzyl-2-(4-(2-(2-phenyl-1H-benzo[d]imidazol-1-yl)-2-(piperidin-4-yl)ethoxy)phenyl)-1H-benzo[d]imidazole]
inhibition of proliferation (slope of cell index) (Mel Im cells [1]): dose-dependent inhibition of proliferation | inhibition of proliferation (slope of cell index) (Mel Juso cells [2]): dose-dependent inhibition of proliferation | toxicity in different melanoma cell lines [3]: marked toxicity | surviving tumor cells after long-term treatment (Mel Im cells [4]): no surviving tumor cells were detected | surviving tumor cells after long-term treatment (Mel Juso cells [5]): no surviving tumor cells were detected | three-dimensional colony formation and proliferation of pre-formed colonies (Mel Im cells [6]): similarly effective as PLX | proliferation of PLX-treated, BRAFi-resistant melanoma cells [7]: dose dependent inhibition of proliferation | emergence of surviving tumor cells (cross-resistance to DR) [8]: completely abolish the emergence of surviving tumor cells | pERK- and pAKT protein levels (PLC cells): significant reduction | pERK- and pAKT protein levels (Hep3B cells): significant reduction | tumor cell toxicity (HCC tumor cells): marked tumor cell toxicity | tumor cell proliferation (viable cells) [9]: marked effects | apoptosis [10]: marked effects | anchorage-dependent tumor cell growth (HCC cells): suppressed | inhibition of proliferation (PLC): strong dose-dependent inhibition of proliferation
